Reference: patent publication US9216197B2, “Topical formulations of tellurium-containing compounds” (BIOMAS LTD., priority 2006, dated 2015)

What was measured:
rats = details: intravenous and intramuscular administration; cited from earlier work
[1] = Compatibility with aluminum tube packaging and metal equipment; type: physicochemical; details: any contact with metal equipment
[2] = Storage of AS101 samples in scintillation glass bottles with aluminum laminated non-sealed caps; type: physicochemical; details: 30 days at ambient temperature, scintillation glass bottle with non-sealed cap
Experimental: FIGS. 1A-B present images of the content and packaging components of the containers in which the AS101 powder (FIG. 1A) and the […] AS101 […] solution in DMSO (FIG. 1B) were provided, upon 30 days of storage at ambient temperature.
The white crystalline coarse powder was placed in a scintillation glass bottle with a non-sealed cap.
A 20% (by weight) solution of AS101 in DMSO was prepared. The solution appeared as a yellow liquid with a cloudy dispersion evolving upon mixing. […] However, some unidentified particles were observed.

[3] = Heating the mixture of AS101 and propylene glycol; type: physicochemical
[4] = Microscopic evaluation of samples and polarized light crystallography; type: physicochemical
Text: Microscopic Evaluation of Samples and Polarized Light Crystallography: Formulation Stability Measurements

[5] = AS101 solubility profile: solubility and stability (by coloration detection) in various solvents; type: physicochemical; details: for Coloration / Solubility: 10% by weight AS101, ambient temperature, after 24 hours
Experimental: In a search for an improved formulation for topical application, the solubility and stability (by coloration detection) of AS101 in various hydrophilic and lipophilic solvents were determined. Since it is commonly known that topically applied formulations have better skin absorption and feel when the active pharmaceutical ingredient is solubilized or is in a molecular form, a desirable topical formulation should be characterized by high solubility and/or dispersability of the active ingredient therein.
Thus, solutions containing 10% by weight of AS101 in each solvent, were prepared by mixing AS101 in the solvent at ambient temperature.

[6] = as above; type: physicochemical; details: hydroxycellulose

Cl[TeH]1(Cl)(Cl)OCCO1 [AS101, ammonium trichloro(dioxyethylene-O,O′)tellurate]
LD50 relative to the immunologically effective dose (rats): 500-1000 folds | Color upon contact with metal equipment [1]: dark, black color | State of the aluminum laminate cap after storage [2]: chemically and physically decomposed | Change upon heating the mixture of AS101 and propylene glycol [3]: no change was observed | Crystals under polarized light ([4]; polarized light): distinct crystals producing birefrigerence | Particle diameter ([4]; powder): 20-40 microns | Coloration ([5]; 1% acetic acid): No | Solubility ([5]; 1% acetic acid): No | Coloration ([5]; Alkyl benzoate): No | Solubility ([5]; Alkyl benzoate): No | Coloration ([5]; Arlamol E): No | Solubility ([5]; Arlamol E): No | Coloration ([5]; Butyleneglycol): No | Solubility ([5]; Butyleneglycol): Yes | Coloration ([5]; DMI): No | Solubility ([5]; DMI): No | Coloration ([5]; DMSO): No | Solubility ([5]; DMSO): Yes | Coloration ([5]; Glycofurol): No | Solubility ([5]; Glycofurol): Yes | Coloration ([5]; Hexylene glycol): No | Solubility ([5]; Hexylene glycol): No | Coloration ([5]; IPM): No | Solubility ([5]; IPM): No | Coloration ([5]; MCT oil): No | Solubility ([5]; MCT oil): No | Coloration ([5]; Mineral oil): No | Solubility ([5]; Mineral oil): No | Coloration ([5]; PEG 200): No | Solubility ([5]; PEG 200): Yes | Coloration ([5]; PEG 400): No | Solubility ([5]; PEG 400): Yes | Coloration ([5]; Propylene Glycol): No | Solubility ([5]; Propylene Glycol): Yes | Coloration ([5]; Silicone oil): Black | Solubility ([5]; Silicone oil): No | Coloration ([5]; Transcutol): No | Solubility ([5]; Transcutol): Yes | Precipitation or re-crystallization of AS101 ([5]; amphiphilic glycolic solvents: PEG, butyleneglycol, gycofurol, propylene glycol and TRANSCUTOL, during the tested period): no precipitation or re-crystallization | Solution coloration (compatibility) [6]: unacceptable solution coloration
